Columns and labels:
PamNTT1 = biological target: T1, PamNTT1 (Candidatus Protochlamydia amoebophila, UniProt Q70GF7); test: [α[…]]ADP uptake into proteoliposomes, anion exchange separation; type: biochemical; details: apparent; ADP import in homo-exchange with 10 mM luminal ADP; pH 7.5; 30 °C; labelled compound
T1 construct: gene ntt1; full-length, N-terminal His tag (pET16b)
T1 sequence (Q70GF7 1-513): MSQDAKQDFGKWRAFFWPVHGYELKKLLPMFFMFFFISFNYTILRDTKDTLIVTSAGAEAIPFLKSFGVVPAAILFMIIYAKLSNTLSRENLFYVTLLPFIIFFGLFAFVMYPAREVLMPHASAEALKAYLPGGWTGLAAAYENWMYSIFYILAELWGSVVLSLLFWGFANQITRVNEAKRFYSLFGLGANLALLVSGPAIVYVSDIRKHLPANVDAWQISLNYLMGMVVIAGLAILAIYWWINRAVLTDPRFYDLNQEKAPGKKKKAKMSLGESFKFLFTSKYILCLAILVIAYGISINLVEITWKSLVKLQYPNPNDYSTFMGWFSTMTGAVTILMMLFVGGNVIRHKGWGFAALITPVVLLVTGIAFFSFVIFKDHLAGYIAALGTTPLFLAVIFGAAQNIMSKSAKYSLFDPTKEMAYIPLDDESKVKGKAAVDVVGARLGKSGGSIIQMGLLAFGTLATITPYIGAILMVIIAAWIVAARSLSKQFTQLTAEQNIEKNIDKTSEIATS

purified protein = substrate: Nc1ncnc2c1ncn2[C@@H]1O[C@H](COP(=O)(O)OP(=O)(O)OP(=O)(O)O)[C@@H](O)[C@H]1O; test: purified protein; type: biochemical, Candidatus Protochlamydia amoebophila; details: apparent, ATP import in exchange with 10 mM luminal ADP, pH 7.5, 30 °C, labelled compound

Molecule: Nc1ncnc2c1ncn2[C@@H]1O[C@H](COP(=O)(O)OP(=O)(O)O)[C@@H](O)[C@H]1O [ADP]
- K M (PamNTT1): Approximately equivalent K M values were estimated for the ADPim/ADPex and ATPim/ATPex homo-exchange mode

B1: PamNTT1 (Candidatus Protochlamydia amoebophila UWE25) (protein)
chain: T1 sequence (Q70GF7 1-513)
notes: full-length, N-terminal His tag (pET16b)
- Km (purified protein): 17 µM
